Source: article PMC9198979, “Polymeric Nanotubes as Drug Delivery Vectors—Comparison of Covalently and Supramolecularly Assembled Constructs” (Biomacromolecules, 2022)

Experiment: In vivo pharmacokinetics of 14C-radiolabelled compounds after IV dosing (plasma and urine radioactivity)
Set-up: species or system male Sprague Dawley rats
Conditions: rat
Experimental: All animal experimental protocols were approved by the Monash Institute of Pharmaceutical Sciences Animal Ethics Committee, Monash University, Parkville, VIC, Australia. Male Sprague Dawley rats (250–350 g) were used. Animals were maintained on a 12 h light/dark cycle at all times and after transport were acclimatized for 7 days at the facility prior to in vivo studies. […] Urine samples were collected at the 24 h timepoint, and a 50 μL of the sample was transferred to a vial, 4 mL of Ultima Gold added and counted using the scintillator. A blank urine sample prior to dosage was also collected and analyzed to account for background radiation. The pharmacokinetic parameters were determined using non-compartmental analysis with Excel software using the PK Solver add-in (NCA IV Bolus model). […] AUC0-t, elimination half-life (t1/2), volume of distribution at steady state (Vd ss), and clearance rate (Cl) were calculated with this approach. For the linear compound, the 1440 min timepoint was omitted from parameter fitting due to the very low radioactivity for this measurement. The ^14C-radiolabeled compounds were injected intravenously into male Sprague-Dawley rats at a nominal dose of radioactivity (1 μCi, varying 0.82–2.78 mg dose of the sample) and blood samples taken over the course of 24 h to monitor the plasma concentration time profiles.

| Substance | Cl (clearance rate) |
| --- | --- |
| PNAM100-co-NAS5 [linear] | 16.9 ± 0.91 mL h^–1 |
| (PNAM50-co-NAS2.5)140 [BB] | 0.342 ± 0.102 mL h^–1 |
